Assay results: publication doi:10.1101/2024.09.17.613365, “Type-II kinase inhibitors that target Parkinson’s Disease-associated LRRK2” (bioRxiv, 2025)
Where two headings read alike, the source gives them in different places. One block for each compound: values may come before it.

What was measured:
LRRK2^KW [1] = molecular target: T1, LRRK2^KW (Homo sapiens, UniProt Q5S007); set-up: DSF thermal shift of purified LRRK2 KW construct with compound; conditions: binder
T1 construct: Kinase and WD40 domain construct (KW)
T1 sequence (Q5S007 whole entry, the tested form may be a part): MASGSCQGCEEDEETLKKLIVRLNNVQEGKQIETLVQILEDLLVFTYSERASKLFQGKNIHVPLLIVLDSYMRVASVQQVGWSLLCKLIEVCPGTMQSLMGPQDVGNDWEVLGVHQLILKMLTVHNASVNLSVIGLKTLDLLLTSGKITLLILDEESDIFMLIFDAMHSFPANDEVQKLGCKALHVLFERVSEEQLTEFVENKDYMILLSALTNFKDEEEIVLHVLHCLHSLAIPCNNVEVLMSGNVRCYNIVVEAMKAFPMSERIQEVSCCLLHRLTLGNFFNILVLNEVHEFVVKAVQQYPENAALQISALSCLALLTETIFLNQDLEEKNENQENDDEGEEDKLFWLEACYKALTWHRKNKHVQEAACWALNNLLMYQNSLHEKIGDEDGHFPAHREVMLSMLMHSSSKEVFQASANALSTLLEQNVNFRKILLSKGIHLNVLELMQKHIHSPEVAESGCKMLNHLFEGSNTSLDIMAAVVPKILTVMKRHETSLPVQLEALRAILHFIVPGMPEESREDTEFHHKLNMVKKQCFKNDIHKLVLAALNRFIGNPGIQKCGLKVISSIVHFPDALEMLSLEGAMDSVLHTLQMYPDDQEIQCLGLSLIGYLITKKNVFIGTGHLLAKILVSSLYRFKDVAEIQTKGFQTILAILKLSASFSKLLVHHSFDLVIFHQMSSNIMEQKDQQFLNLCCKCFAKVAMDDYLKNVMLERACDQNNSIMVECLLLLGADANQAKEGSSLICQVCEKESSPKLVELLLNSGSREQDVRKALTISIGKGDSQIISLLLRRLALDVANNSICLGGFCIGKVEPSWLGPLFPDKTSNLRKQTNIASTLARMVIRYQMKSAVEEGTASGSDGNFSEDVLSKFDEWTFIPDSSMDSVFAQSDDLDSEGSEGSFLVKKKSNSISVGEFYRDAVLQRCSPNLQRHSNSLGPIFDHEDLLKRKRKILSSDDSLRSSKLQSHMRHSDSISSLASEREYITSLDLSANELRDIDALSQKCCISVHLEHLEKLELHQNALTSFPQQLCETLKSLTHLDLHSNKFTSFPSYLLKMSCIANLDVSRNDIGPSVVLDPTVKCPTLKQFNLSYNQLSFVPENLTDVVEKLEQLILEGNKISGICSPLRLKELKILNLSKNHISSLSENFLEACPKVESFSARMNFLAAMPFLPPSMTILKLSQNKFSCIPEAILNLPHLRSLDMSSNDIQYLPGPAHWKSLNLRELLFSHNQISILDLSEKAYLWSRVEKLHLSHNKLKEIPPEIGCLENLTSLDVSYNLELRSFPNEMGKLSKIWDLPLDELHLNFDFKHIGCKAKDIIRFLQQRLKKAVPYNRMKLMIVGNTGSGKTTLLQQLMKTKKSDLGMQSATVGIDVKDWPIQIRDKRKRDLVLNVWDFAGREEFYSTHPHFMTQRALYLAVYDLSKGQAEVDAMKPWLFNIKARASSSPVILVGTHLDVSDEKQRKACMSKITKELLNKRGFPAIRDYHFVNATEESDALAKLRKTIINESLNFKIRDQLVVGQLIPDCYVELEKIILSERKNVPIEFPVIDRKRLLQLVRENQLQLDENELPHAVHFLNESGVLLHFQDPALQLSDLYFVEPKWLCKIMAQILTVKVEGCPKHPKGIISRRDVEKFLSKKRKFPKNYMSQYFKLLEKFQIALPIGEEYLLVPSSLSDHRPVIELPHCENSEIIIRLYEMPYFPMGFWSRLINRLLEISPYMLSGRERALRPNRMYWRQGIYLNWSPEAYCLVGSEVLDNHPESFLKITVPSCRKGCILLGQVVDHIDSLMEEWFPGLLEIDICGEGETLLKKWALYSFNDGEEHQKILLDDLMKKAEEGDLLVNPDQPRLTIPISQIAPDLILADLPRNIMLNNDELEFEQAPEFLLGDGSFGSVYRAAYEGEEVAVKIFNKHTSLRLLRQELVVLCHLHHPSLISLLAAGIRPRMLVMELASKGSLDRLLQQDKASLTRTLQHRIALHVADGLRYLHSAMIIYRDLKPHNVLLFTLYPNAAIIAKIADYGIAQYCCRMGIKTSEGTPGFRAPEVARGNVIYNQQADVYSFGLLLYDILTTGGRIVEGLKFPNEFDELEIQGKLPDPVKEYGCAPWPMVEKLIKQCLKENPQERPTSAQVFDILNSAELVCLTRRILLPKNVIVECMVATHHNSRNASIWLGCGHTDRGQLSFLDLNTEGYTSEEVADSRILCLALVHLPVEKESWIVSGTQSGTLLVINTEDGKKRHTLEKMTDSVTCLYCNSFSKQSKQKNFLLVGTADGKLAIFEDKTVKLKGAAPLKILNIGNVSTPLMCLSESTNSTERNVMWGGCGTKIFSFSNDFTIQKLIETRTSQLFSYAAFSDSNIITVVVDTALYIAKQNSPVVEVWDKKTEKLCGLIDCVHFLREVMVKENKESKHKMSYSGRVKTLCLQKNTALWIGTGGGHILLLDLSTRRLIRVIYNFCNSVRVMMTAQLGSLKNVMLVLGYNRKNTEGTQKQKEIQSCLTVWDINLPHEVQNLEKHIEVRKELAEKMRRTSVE
Excerpt: Additionally, we screened a library of published type-II inhibitors to identify those that bind to LRRK2^KW (a Kinase and WD40 domain construct of LRRK2) with high affinity. […] Next, we evaluated the potency and selectivity of these new compounds. We performed on-target screening by measuring the thermostability increase of LRRK2^KW in the presence of the new compounds using DSF (Supporting Information Table S2). We also determined the in vitro IC50 (median inhibitory concentration) values for each of the new compounds by purifying LRRK2^RCKW and measuring its kinase activity in the presence of our new inhibitors using the PhosphoSense® activity assay from AssayQuant (Supporting Information Table S2). Finally, we estimated the kinome selectivity of each compound by measuring the thermostability increase of approximately 100 representative kinases in the presence of the compounds via DSF (Supporting Information Table S2).

LRRK2^KW [2] = molecular target: T1, LRRK2^KW; set-up: Differential scanning fluorometry, thermal stabilization of LRRK2 KW by compound; conditions: binder
Excerpt: Next, we evaluated the potency and selectivity of these new compounds. We performed on-target screening by measuring the thermostability increase of LRRK2^KW in the presence of the new compounds using DSF (Supporting Information Table S2). We also determined the in vitro IC50 (median inhibitory concentration) values for each of the new compounds by purifying LRRK2^RCKW and measuring its kinase activity in the presence of our new inhibitors using the PhosphoSense® activity assay from AssayQuant (Supporting Information Table S2). Finally, we estimated the kinome selectivity of each compound by measuring the thermostability increase of approximately 100 representative kinases in the presence of the compounds via DSF (Supporting Information Table S2). […] Additionally, we screened a library of published type-II inhibitors to identify those that bind to LRRK2^KW (a Kinase and WD40 domain construct of LRRK2) with high affinity.

[3] = molecular target: T2, leucine-rich repeat kinase 2 (LRRK2) (Homo sapiens, UniProt Q5S007); assay: biochemical; set-up: PhosphoSense (AssayQuant) kinase activity assay with purified LRRK2 RCKW
T2 construct: LRRK2^RCKW (ROC, COR, Kinase, WD40)
T2 sequence (Q5S007 1327-2527 limits assumed): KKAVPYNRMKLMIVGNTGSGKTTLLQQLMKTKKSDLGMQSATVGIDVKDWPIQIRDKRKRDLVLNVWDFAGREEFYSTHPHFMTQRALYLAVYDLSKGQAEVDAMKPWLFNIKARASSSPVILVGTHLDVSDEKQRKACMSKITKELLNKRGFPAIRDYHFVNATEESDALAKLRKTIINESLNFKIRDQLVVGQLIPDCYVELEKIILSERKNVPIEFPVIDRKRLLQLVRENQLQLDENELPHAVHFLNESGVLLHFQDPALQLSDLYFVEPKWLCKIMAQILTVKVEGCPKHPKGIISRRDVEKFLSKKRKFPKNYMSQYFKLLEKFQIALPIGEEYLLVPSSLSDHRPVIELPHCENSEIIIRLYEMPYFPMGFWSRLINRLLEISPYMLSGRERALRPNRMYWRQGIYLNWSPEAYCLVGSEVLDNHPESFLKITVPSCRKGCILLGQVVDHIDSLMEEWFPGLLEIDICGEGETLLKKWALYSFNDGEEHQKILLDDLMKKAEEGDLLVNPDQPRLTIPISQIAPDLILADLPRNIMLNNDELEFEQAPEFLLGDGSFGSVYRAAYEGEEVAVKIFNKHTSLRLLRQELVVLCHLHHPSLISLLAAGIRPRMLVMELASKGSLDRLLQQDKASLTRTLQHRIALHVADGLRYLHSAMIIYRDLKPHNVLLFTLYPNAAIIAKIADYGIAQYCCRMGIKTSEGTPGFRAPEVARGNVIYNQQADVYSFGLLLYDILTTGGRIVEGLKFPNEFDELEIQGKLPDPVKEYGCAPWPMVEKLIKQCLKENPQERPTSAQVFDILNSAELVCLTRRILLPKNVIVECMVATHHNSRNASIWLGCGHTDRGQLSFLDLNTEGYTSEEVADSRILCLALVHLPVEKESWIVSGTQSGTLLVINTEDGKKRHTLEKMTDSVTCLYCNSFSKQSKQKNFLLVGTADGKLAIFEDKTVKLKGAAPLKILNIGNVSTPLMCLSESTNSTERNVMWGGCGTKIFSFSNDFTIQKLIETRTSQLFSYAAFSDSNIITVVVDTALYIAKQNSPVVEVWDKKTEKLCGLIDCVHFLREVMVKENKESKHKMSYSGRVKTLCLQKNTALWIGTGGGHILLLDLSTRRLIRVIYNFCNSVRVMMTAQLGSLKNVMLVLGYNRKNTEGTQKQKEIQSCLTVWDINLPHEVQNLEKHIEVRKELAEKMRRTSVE
Excerpt: Next, we evaluated the potency and selectivity of these new compounds. We performed on-target screening by measuring the thermostability increase of LRRK2^KW in the presence of the new compounds using DSF (Supporting Information Table S2). We also determined the in vitro IC50 (median inhibitory concentration) values for each of the new compounds by purifying LRRK2^RCKW and measuring its kinase activity in the presence of our new inhibitors using the PhosphoSense® activity assay from AssayQuant (Supporting Information Table S2). Finally, we estimated the kinome selectivity of each compound by measuring the thermostability increase of approximately 100 representative kinases in the presence of the compounds via DSF (Supporting Information Table S2).

SMILES: CCN1CCN(Cc2ccc(NC(=O)c3ccc(C)c(NC(=O)c4cncc(-c5cccs5)c4)c3)cc2C(F)(F)F)CC1 [ALW-II-41-27]
- dTm LRRK2(KW) (LRRK2^KW [1]): -0.5 K

SMILES: Cc1ccc(NC(=O)c2cccc(N(C)C)c2)cc1NC(=O)c1ccc(O)cc1 [ZM336372]
- dTm LRRK2(KW) (LRRK2^KW [1]): -1 K

SMILES: NC(=O)C1(C(=O)N(c2ccc(F)cc2)c2cccc(-c3c[nH]c4ncnc(N5CCOCC5)c34)c2)CCCC1 [compound 3, N-(4-fluorophenyl)-N-(3-(4-morpholino-7H-pyrrolo[2,3-d]pyrimidin-5-yl)phenyl)cyclopentane-1,1-dicarboxamide]
- IC50 [3]: 0.694 ± 0.001 µM

SMILES: Cc1ccc(C(=O)Nc2cccc(C(F)(F)F)c2)cc1Nc1nc(-c2cccnc2)nc2c1cnn2C [NVP-BHG712]
- dTm LRRK2(KW) (LRRK2^KW [1]): -0.5 K

SMILES: CC1(C)CNc2cc(NC(=O)c3cccnc3NCc3ccncc3)ccc21 [Motesanib]
- dTm LRRK2(KW) (LRRK2^KW [1]): -0.5 K

SMILES: CNC(=O)c1cc(Oc2ccc(NC(=O)Nc3ccc(Cl)c(C(F)(F)F)c3)c(F)c2)ccn1 [Regorafinib]
- dTm LRRK2(KW) (LRRK2^KW [1]): 5.5 K

SMILES: COc1cc(Oc2ccnc3cc(OC)c(OC)cc23)ccc1NC(=O)NC(C)c1nccs1 (stereo not shown) [KI20227]
- dTm LRRK2(KW) (LRRK2^KW [1]): 3 K

SMILES: N#CC1(c2ccc(NC(=O)c3cccnc3NCc3ccncc3)cc2)CCCC1 [Apatinib]
- dTm LRRK2(KW) (LRRK2^KW [1]): -1 K

SMILES: COc1cc2c(Nc3ccc(NC(=O)c4ccccc4)cc3)ncnc2cc1OCCCN1CCOCC1 [ZM447439]
- dTm LRRK2(KW) (LRRK2^KW [1]): 6.5 K

SMILES: Cc1ccc(NC(=O)c2cccc(C(C)(C)C#N)c2)cc1Nc1ccc2ncn(C)c(=O)c2c1 [AZ 628]
- dTm LRRK2(KW) (LRRK2^KW [1]): -0.5 K

SMILES: Cc1ccc(-n2nc(C(C)(C)C)cc2NC(=O)Nc2cc(COc3cccnc3)[nH]n2)cc1 [PF-4618433]
- dTm LRRK2(KW) (LRRK2^KW [1]): 11 K

SMILES: Cc1cn(-c2cc(NC(=O)c3ccc(C)c(Nc4nccc(-c5cccnc5)n4)c3)cc(C(F)(F)F)c2)cn1 [Nilotinib]
- dTm LRRK2(KW) (LRRK2^KW [1]): -2.5 K

SMILES: NC(=O)C1(C(=O)N(c2ccc(F)cc2)c2cccc(-c3c[nH]c4ncnc(N5CCOCC5)c34)c2)CC1 [compound 2, N-(4-fluorophenyl)-N-(3-(4-morpholino-7H-pyrrolo[2,3-d]pyrimidin-5-yl)phenyl)cyclopropane-1,1-dicarboxamide]
- IC50 [3]: 0.185 ± 0.01 µM

The remaining lines, values ahead:

- ΔTm [K] (LRRK2^KW [2]): 0.0 K
SMILES: COc1cc(C(=O)N2CCOCC2)c(F)cc1Nc1nc(N(C)C)c2c(-c3cccc(NC(=O)Nc4cc(C(C)(C)C)nn4-c4ccc(C)cc4)c3)c[nH]c2n1 [compound 36, 1-(3-(tert-butyl)-1-(p-tolyl)-1H-pyrazol-5-yl)-3-(3-(4-(dimethylamino)-2-((5-fluoro-2-methoxy-4-(morpholine-4-carbonyl)phenyl)amino)-7H-pyrrolo[2,3-d]pyrimidin-5-yl)phenyl)urea]

- ΔTm [K] (LRRK2^KW [2]): 1.5 K
SMILES: COc1cc(S(C)(=O)=O)ccc1Nc1nc(N(C)C)c2c(-c3cccc(NC(=O)Nc4cc(C(C)(C)C)nn4-c4ccc5ncccc5c4)c3)c[nH]c2n1 [compound 37, 1-(3-(tert-butyl)-1-(quinolin-6-yl)-1H-pyrazol-5-yl)-3-(3-(4-(dimethylamino)-2-((2-methoxy-4-(methylsulfonyl)phenyl)amino)-7H-pyrrolo[2,3-d]pyrimidin-5-yl)phenyl)urea]

- IC50 [3]: 2.11 ± 1.19 µM
SMILES: Cn1cc(N(C(=O)C2(C(N)=O)CC2)c2cccc(-c3c[nH]c4ncnc(N5CCOCC5)c34)c2)cn1 [compound 9, N-(1-methyl-1H-pyrazol-4-yl)-N-(3-(4-morpholino-7H-pyrrolo[2,3-d]pyrimidin-5-yl)phenyl)cyclopropane-1,1-dicarboxamide]

- IC50 [3]: 9.58 ± 0.565 µM
SMILES: Cc1ccc(N(C(=O)C2(C(N)=O)CC2)c2ccc(F)cc2)cc1-c1c[nH]c2ncnc(N3CCOCC3)c12 [compound 5, N-(4-fluorophenyl)-N-(4-methyl-3-(4-morpholino-7H-pyrrolo[2,3-d]pyrimidin-5-yl)phenyl)cyclopropane-1,1-dicarboxamide]

- ∆Tm [K] (LRRK2^KW [1]): 2.0 K
- IC50 ([3]; read-out: IC50 (cells in μM)): > 15 µM
SMILES: NC(=O)C1(C(=O)N(c2ccc(F)cc2)c2ccc(Nc3ccc4n[nH]cc4c3)cc2)CC1 [compound 49, N-(4-((2H-indazol-5-yl)amino)phenyl)-N-(4-fluorophenyl)cyclopropane-1,1-dicarboxamide]

- IC50 [3]: 2.15 ± 0.076 µM
SMILES: Cc1cc(-c2c[nH]c3ncnc(N4CCOCC4)c23)cc(N(C(=O)C2(C(N)=O)CC2)c2ccc(F)cc2)c1 [compound 6, N-(4-fluorophenyl)-N-(3-methyl-5-(4-morpholino-7H-pyrrolo[2,3-d]pyrimidin-5-yl)phenyl)cyclopropane-1,1-dicarboxamide]

- ΔTm [K] (LRRK2^KW [2]): 1.0 K
SMILES: COc1cc(S(C)(=O)=O)ccc1Nc1nc(N(C)C)c2c(-c3cccc(NC(=O)Nc4cc(C(C)(C)C)nn4-c4ccc(C)cc4)c3)c[nH]c2n1 [compound 35, 1-(3-(tert-butyl)-1-(p-tolyl)-1H-pyrazol-5-yl)-3-(3-(4-(dimethylamino)-2-((2-methoxy-4-(methylsulfonyl)phenyl)amino)-7H-pyrrolo[2,3-d]pyrimidin-5-yl)phenyl)urea]

- ∆Tm [K] (LRRK2^KW [1]): 1.0 K
- IC50 ([3]; read-out: IC50 (cells in μM)): > 15 µM
SMILES: NC(=O)C1(C(=O)N(c2ccc(F)cc2)c2ccc3cn[nH]c3c2)CC1 [compound 51, N-(4-fluorophenyl)-N-(1H-indazol-6-yl)cyclopropane-1,1-dicarboxamide]

- ∆Tm [K] (LRRK2^KW [1]): 1.5 K
- IC50 ([3]; read-out: IC50 (cells in μM)): > 15 µM
SMILES: Cc1cn(-c2cc(NC(=O)c3ccc(C)c(Nc4ccc5n[nH]cc5c4)c3)cc(C(F)(F)F)c2)cn1 [compound 50, 3-((2H-indazol-5-yl)amino)-4-methyl-N-(3-(4-methyl-1H-imidazol-1-yl)-5-(trifluoromethyl)phenyl)benzamide]

- ΔTm [K] (LRRK2^KW [2]): 18.0 K
SMILES: Cc1ccc(-n2nc(C(C)(C)C)cc2NC(=O)Nc2cccc(-c3c[nH]c4nc(Cl)nc(N5CCOCC5)c34)c2)cc1 [compound 30, RN277]

- ΔTm [K] (LRRK2^KW [2]): 19.9 K
SMILES: CCSc1nc(NC)c2c(-c3cccc(NC(=O)Nc4cc(C(C)(C)C)nn4-c4ccc(C)cc4)c3)c[nH]c2n1 [compound 32, RN341]

- IC50 [3]: 10.5 ± 1.02 µM
SMILES: Cc1ccc(-c2c[nH]c3ncnc(N4CCOCC4)c23)cc1N(C(=O)C1(C(N)=O)CC1)c1ccc(F)cc1 [compound 7, N-(4-fluorophenyl)-N-(2-methyl-5-(4-morpholino-7H-pyrrolo[2,3-d]pyrimidin-5-yl)phenyl)cyclopropane-1,1-dicarboxamide]

- ΔTm [K] (LRRK2^KW [2]): 16.0 K
SMILES: COc1cc(C(=O)N2CCOCC2)c(F)cc1Nc1nc(N(C)C)c2c(Cl)c[nH]c2n1 [compound 33]

- ∆Tm [K] (LRRK2^KW [1]): 1.0 K
- IC50 ([3]; read-out: IC50 (cells in μM)): > 15 µM
SMILES: NC(=O)C1(C(=O)N(c2ccc(F)cc2)c2ccc(Oc3ccc4n[nH]cc4c3)cc2)CC1 [compound 48, N-(4-((2H-indazol-5-yl)oxy)phenyl)-N-(4-fluorophenyl)cyclopropane-1,1-dicarboxamide]
